{"source": "paper PMC8151276", "about": "“An Integrated Approach toward NanoBRET Tracers for Analysis of GPCR Ligand Engagement” (Molecules, 2021)", "type_in_all_cases": "binding", "key": {"P2RY10": {"target": "T1, P2RY10 (Homo sapiens, UniProt O00398)", "T1 construct": "purchased Promega (in-house HiBiT-GPCR construct library, NanoBRET)", "T1 sequence (O00398 whole entry, the tested form may be a part, one chain of several)": "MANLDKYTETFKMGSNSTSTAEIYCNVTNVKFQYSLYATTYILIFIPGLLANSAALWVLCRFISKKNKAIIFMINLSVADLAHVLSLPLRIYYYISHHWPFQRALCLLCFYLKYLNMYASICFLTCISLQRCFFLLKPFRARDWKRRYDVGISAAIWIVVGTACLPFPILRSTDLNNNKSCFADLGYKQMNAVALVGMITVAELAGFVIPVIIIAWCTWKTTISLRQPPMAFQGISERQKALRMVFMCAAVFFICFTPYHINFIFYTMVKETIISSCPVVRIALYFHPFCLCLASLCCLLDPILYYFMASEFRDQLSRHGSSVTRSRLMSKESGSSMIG", "experiment": "NanoBRET screen HiBiT-P2RY10 in HEK293", "conditions": "P2RY10", "method_in_brief": "(§1)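 HEK293 cells transiently expressing N-terminal HiBiT-receptor fusions (diluted in carrier DNA, 18–20 h) treated 1.5 h at RT with fluorescent tracer at 1 μM or 0.1 μM, alone or with 20 μM unlabelled parental compound. Extracellular LgBiT plus furimazine added, 15 min; BRET 600/450 nm; value is fold BRETtracer/BRETcompetitor, ≥1.5 scored positive.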"}, "FZD2": {"target": "T2, FZD2 (Homo sapiens, UniProt Q14332)", "T2 construct": "purchased Promega (in-house HiBiT-GPCR construct library, NanoBRET)", "T2 sequence (Q14332 24-565)": "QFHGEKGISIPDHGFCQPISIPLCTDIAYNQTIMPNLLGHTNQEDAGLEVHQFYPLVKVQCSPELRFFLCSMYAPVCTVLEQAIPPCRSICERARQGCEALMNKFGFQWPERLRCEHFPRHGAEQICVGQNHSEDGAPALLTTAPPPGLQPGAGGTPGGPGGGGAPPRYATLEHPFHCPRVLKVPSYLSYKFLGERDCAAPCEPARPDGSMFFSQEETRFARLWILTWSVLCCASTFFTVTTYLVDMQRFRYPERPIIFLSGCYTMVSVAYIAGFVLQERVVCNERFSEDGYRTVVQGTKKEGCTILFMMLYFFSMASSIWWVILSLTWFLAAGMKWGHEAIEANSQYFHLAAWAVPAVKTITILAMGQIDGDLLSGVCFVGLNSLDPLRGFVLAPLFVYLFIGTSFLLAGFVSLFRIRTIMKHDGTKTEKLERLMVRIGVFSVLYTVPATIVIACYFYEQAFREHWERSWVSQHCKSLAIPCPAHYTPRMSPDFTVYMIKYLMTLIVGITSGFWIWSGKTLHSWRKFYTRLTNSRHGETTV", "experiment": "NanoBRET screen HiBiT-FZD2 in HEK293", "conditions": "FZD2", "method_in_brief": "as §1"}, "GABBR1": {"target": "T3, GABBR1 (Homo sapiens, UniProt Q9UBS5)", "T3 construct": "purchased Promega (in-house HiBiT-GPCR construct library, NanoBRET)", "T3 sequence (Q9UBS5 15-961 limits assumed)": "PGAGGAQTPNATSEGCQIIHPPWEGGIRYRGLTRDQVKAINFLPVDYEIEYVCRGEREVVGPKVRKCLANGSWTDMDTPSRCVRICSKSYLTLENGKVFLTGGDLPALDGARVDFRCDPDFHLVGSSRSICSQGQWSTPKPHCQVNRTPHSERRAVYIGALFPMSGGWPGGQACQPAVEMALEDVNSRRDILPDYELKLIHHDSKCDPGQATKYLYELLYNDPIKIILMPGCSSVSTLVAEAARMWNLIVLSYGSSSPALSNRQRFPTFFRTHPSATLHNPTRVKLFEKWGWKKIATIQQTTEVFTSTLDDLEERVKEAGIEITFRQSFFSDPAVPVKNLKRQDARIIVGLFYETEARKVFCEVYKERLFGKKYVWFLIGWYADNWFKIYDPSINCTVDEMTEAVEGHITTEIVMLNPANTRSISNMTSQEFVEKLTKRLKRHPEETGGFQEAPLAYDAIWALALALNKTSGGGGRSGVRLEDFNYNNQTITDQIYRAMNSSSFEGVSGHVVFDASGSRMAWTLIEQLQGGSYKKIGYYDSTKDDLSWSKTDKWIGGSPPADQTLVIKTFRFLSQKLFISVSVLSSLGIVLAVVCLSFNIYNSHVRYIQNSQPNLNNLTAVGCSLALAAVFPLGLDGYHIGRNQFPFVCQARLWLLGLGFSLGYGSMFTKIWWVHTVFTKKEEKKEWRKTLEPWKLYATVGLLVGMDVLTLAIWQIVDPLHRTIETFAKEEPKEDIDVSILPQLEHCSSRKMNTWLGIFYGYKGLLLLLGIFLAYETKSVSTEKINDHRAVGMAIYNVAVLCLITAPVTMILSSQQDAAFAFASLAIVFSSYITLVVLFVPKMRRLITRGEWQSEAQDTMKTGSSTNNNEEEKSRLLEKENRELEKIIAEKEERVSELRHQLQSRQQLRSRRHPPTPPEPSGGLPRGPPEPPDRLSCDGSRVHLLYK", "experiment": "NanoBRET screen HiBiT-GABBR1 in HEK293", "conditions": "GABBR1", "method_in_brief": "as §1"}, "MCHR1": {"target": "T4, MCHR1 (Homo sapiens, UniProt Q99705)", "T4 construct": "purchased Promega (in-house HiBiT-GPCR construct library, NanoBRET)", "T4 sequence (Q99705 whole entry)": "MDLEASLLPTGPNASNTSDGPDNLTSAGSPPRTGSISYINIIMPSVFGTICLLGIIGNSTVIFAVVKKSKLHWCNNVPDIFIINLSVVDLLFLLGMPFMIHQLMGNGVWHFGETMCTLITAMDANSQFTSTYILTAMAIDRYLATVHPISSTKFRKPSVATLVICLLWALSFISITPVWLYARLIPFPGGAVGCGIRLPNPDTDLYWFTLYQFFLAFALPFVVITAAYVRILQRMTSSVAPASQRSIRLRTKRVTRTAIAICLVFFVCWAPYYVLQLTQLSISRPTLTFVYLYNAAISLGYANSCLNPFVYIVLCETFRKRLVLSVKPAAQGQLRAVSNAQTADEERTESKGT", "experiment": "NanoBRET screen HiBiT-MCHR1 in HEK293", "conditions": "MCHR1", "method_in_brief": "as §1"}, "HTR5A": {"target": "T5, HTR5A (Homo sapiens, UniProt P47898)", "T5 construct": "purchased Promega (in-house HiBiT-GPCR construct library, NanoBRET)", "T5 sequence (P47898 whole entry)": "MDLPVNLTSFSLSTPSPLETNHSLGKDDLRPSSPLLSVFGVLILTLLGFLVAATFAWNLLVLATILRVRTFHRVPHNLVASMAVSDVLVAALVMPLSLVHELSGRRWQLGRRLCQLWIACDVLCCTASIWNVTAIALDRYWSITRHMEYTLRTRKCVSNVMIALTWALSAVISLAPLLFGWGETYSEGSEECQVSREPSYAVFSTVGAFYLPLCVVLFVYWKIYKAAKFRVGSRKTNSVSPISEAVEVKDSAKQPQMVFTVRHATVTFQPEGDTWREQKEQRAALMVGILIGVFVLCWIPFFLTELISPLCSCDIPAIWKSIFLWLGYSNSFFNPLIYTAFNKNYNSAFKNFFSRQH", "experiment": "NanoBRET screen HiBiT-HTR5A in HEK293", "conditions": "HTR5A", "method_in_brief": "as §1"}, "LGR6": {"target": "T6, LGR6 (Homo sapiens, UniProt Q9HBX8)", "T6 construct": "purchased Promega (in-house HiBiT-GPCR construct library, NanoBRET)", "T6 sequence (Q9HBX8 25-967)": "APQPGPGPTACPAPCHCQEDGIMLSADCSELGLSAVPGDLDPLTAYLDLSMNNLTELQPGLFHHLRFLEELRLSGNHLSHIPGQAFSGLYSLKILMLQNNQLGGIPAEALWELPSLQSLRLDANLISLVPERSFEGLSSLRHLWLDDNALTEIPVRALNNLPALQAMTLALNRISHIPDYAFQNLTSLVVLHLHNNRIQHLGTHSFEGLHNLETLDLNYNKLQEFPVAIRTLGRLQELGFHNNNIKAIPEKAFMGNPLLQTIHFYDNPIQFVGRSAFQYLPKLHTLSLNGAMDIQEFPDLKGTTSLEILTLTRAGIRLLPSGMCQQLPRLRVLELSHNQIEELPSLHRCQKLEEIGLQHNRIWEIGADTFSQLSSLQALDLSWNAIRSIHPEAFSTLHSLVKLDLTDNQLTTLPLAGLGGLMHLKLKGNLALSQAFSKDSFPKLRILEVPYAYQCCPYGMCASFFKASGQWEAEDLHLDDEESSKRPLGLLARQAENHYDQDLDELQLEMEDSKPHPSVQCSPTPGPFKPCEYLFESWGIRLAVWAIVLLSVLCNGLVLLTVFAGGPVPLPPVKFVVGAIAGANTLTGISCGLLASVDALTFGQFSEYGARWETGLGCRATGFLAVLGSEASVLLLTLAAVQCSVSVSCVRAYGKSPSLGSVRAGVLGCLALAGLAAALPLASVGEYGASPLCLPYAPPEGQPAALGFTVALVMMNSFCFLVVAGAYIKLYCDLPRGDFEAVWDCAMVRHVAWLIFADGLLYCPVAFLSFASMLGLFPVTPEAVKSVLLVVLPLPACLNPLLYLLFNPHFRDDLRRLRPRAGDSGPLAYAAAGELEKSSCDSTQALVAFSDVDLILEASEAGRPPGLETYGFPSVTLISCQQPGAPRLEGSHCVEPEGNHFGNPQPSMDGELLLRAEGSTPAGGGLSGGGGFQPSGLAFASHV", "experiment": "NanoBRET screen HiBiT-LGR6 in HEK293", "conditions": "LGR6", "method_in_brief": "as §1"}, "GRM1": {"target": "T7, GRM1 (Homo sapiens, UniProt Q13255)", "T7 construct": "purchased Promega (in-house HiBiT-GPCR construct library, NanoBRET)", "T7 sequence (Q13255 19-1194)": "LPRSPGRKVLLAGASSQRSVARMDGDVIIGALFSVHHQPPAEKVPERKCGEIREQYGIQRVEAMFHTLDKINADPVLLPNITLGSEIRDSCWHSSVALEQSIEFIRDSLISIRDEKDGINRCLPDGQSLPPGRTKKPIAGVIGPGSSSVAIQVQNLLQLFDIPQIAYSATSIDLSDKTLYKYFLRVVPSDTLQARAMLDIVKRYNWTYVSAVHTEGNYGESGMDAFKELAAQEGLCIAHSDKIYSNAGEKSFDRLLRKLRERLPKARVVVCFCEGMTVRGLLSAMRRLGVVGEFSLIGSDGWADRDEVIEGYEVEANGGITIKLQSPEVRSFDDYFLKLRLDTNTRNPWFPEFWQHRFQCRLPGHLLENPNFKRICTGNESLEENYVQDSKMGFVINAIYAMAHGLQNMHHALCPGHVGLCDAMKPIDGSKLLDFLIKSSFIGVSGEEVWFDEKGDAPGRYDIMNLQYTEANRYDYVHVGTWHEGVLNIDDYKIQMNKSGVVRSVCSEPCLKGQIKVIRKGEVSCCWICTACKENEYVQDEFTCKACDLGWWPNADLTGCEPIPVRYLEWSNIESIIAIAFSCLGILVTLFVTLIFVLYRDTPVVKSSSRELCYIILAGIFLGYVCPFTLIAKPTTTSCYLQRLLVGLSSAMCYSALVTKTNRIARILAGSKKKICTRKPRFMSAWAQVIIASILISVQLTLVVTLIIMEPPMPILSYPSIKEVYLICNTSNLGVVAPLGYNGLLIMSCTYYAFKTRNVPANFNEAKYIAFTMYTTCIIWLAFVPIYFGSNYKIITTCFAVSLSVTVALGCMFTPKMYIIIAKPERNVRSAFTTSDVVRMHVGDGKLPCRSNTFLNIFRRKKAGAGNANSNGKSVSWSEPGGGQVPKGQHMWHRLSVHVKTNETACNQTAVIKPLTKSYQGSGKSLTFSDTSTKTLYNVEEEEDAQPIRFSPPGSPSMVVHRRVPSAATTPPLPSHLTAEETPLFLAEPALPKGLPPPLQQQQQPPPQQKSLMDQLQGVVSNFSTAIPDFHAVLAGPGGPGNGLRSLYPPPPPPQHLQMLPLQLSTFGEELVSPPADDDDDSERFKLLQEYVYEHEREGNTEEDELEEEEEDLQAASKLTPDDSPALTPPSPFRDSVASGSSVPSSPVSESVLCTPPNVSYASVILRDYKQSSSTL", "experiment": "NanoBRET screen HiBiT-GRM1 in HEK293", "conditions": "GRM1", "method_in_brief": "as §1"}, "P2RY12": {"target": "T8, P2RY12 (Homo sapiens, UniProt Q9H244)", "T8 construct": "purchased Promega (in-house HiBiT-GPCR construct library, NanoBRET)", "T8 sequence (Q9H244 whole entry, one chain of several)": "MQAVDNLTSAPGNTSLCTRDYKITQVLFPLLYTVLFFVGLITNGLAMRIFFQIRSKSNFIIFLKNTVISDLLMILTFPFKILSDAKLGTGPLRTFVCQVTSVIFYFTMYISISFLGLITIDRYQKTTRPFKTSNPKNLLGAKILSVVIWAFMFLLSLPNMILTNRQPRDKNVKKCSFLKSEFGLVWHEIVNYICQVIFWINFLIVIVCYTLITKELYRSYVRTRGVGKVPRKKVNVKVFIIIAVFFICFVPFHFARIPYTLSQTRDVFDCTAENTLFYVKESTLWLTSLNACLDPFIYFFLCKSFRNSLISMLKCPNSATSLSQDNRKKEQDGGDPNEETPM", "experiment": "NanoBRET screen HiBiT-P2RY12 in HEK293", "conditions": "P2RY12", "method_in_brief": "as §1"}}}
{"smiles": "CC(C)N(CC[C@H](c1ccccc1)c1cc(CCNC(=O)c2ccc(CNC(=O)CCc3ccc4n3[B-](F)(F)[N+]3=C(c5ccc[nH]5)C=CC3=C4)cc2)ccc1O)C(C)C", "note": "[Tolterodine-BZ-NB590]", "values": [{"measurement": "NanoBRET Fold Response", "setting": "P2RY10; tracer 0.1μM", "value": 1.34}, {"measurement": "NanoBRET Fold Response", "setting": "P2RY10; tracer 1μM", "value": 0.76}, {"measurement": "NanoBRET Fold Response", "setting": "FZD2; tracer 0.1μM", "value": 0.95}, {"measurement": "NanoBRET Fold Response", "setting": "FZD2; tracer 1μM", "value": 1.01}, {"measurement": "NanoBRET Fold Response", "setting": "GABBR1; tracer 0.1μM", "value": 0.92}, {"measurement": "NanoBRET Fold Response", "setting": "GABBR1; tracer 1μM", "value": 0.87}, {"measurement": "NanoBRET Fold Response", "setting": "MCHR1; tracer 0.1μM", "value": 0.83}, {"measurement": "NanoBRET Fold Response", "setting": "MCHR1; tracer 1μM", "value": 0.95}, {"measurement": "NanoBRET Fold Response", "setting": "HTR5A; tracer 0.1μM", "value": 0.98}, {"measurement": "NanoBRET Fold Response", "setting": "HTR5A; tracer 1μM", "value": 1.03}, {"measurement": "NanoBRET Fold Response", "setting": "LGR6; tracer 0.1μM", "value": 1.31}, {"measurement": "NanoBRET Fold Response", "setting": "LGR6; tracer 1μM", "value": 0.94}, {"measurement": "NanoBRET Fold Response", "setting": "GRM1; tracer 0.1μM", "value": 0.88}, {"measurement": "NanoBRET Fold Response", "setting": "GRM1; tracer 1μM", "value": 0.19}, {"measurement": "NanoBRET Fold Response", "setting": "P2RY12; tracer 0.1μM", "value": 1.08}, {"measurement": "NanoBRET Fold Response", "setting": "P2RY12; tracer 1μM", "value": 0.91}]}
{"smiles": "CCCn1c(=O)c2[nH]c(-c3ccc(OCC(=O)NCCNC(=O)CCOCCNC(=O)c4ccc(CNC(=O)CCc5ccc6n5[B-](F)(F)[N+]5=C(c7ccc[nH]7)C=CC5=C6)cc4)cc3)nc2n(CCC)c1=O", "note": "[XAC-3-NB590]", "values": [{"measurement": "NanoBRET Fold Response", "setting": "P2RY10; tracer 0.1μM", "value": 0.88}, {"measurement": "NanoBRET Fold Response", "setting": "P2RY10; tracer 1μM", "value": 0.84}, {"measurement": "NanoBRET Fold Response", "setting": "FZD2; tracer 0.1μM", "value": 1.09}, {"measurement": "NanoBRET Fold Response", "setting": "FZD2; tracer 1μM", "value": 1.04}, {"measurement": "NanoBRET Fold Response", "setting": "GABBR1; tracer 0.1μM", "value": 0.86}, {"measurement": "NanoBRET Fold Response", "setting": "GABBR1; tracer 1μM", "value": 1.00}, {"measurement": "NanoBRET Fold Response", "setting": "MCHR1; tracer 0.1μM", "value": 1.01}, {"measurement": "NanoBRET Fold Response", "setting": "MCHR1; tracer 1μM", "value": 1.03}, {"measurement": "NanoBRET Fold Response", "setting": "HTR5A; tracer 0.1μM", "value": 1.12}, {"measurement": "NanoBRET Fold Response", "setting": "HTR5A; tracer 1μM", "value": 0.97}, {"measurement": "NanoBRET Fold Response", "setting": "LGR6; tracer 0.1μM", "value": 0.99}, {"measurement": "NanoBRET Fold Response", "setting": "LGR6; tracer 1μM", "value": 0.90}, {"measurement": "NanoBRET Fold Response", "setting": "GRM1; tracer 0.1μM", "value": 0.63}, {"measurement": "NanoBRET Fold Response", "setting": "GRM1; tracer 1μM", "value": 0.80}, {"measurement": "NanoBRET Fold Response", "setting": "P2RY12; tracer 0.1μM", "value": 0.91}, {"measurement": "NanoBRET Fold Response", "setting": "P2RY12; tracer 1μM", "value": 1.04}]}
